Common to all, as to type: in vivo
For experiment [1], the system named is Bemisia tabaci (Cotton White Fly). The experiment in a line: Bemisia tabaci (Cotton White Fly): feeding/contact activity, cotton leaf discs. The following applies: foliar, 144 h, application rate of 200 ppm, adult white flies on sprayed cotton leaf discs, 6 days after incubation, read-out: mortality. As to the method: Example B1: Bemisia tabaci (Cotton White Fly): Feeding/Contact Activity
Cotton leaf discs were placed on agar in 24-well microtiter plates and sprayed with aqueous test solutions prepared from 10′000 ppm DMSO stock solutions. After drying the leaf discs were infested with adult white flies. The samples were checked for mortality 6 days after incubation.

Experiment [2] has as its system Tetranychus urticae (Two-Spotted Spider Mite). The experiment in a line: whole plant or invertebrate. As to conditions: foliar, 192 h, application rate of 200 ppm, mixed population (mobile stages) on sprayed bean leaf discs, 8 days after infestation, read-out: mortality. On the procedure:
Example B11: Tetranychus urticae (Two-Spotted Spider Mite): Feeding/Contact Activity
Bean leaf discs on agar in 24-well microtiter plates were sprayed with aqueous test solutions prepared from 10′000 ppm DMSO stock solutions. After drying the leaf discs were infested with a mite population of mixed ages. The samples were assessed for mortality on mixed population (mobile stages) 8 days after infestation.

Experiment [3] has as its system Myzus persicae (Green Peach Aphid). The experiment is described as follows: Myzus persicae (Green Peach Aphid): feeding/contact activity, sunflower leaf discs. As to conditions: foliar, 144 h, application rate of 200 ppm, mixed ages on sprayed sunflower leaf discs, 6 days after infestation, read-out: mortality. As to the method:
Example B6: Myzus persicae (Green Peach Aphid): Feeding/Contact Activity
Sunflower leaf discs were placed onto agar in a 24-well microtiter plate and sprayed with aqueous test solutions prepared from 10′000 ppm DMSO stock solutions. After drying, the leaf discs were infested with an aphid population of mixed ages. The samples were assessed for mortality 6 days after infestation.

Experiment [4] has the same test system. The experiment is described as follows: Myzus persicae (Green Peach Aphid): systemic activity, pea seedlings. As to conditions: 144 h, test rate of 24 ppm, systemic, roots of infested pea seedlings in test solution, 6 days, read-out: mortality. On the procedure: Example B7: Myzus persicae (Green Peach Aphid). Systemic Activity
Roots of pea seedlings infested with an aphid population of mixed ages were placed directly into aqueous test solutions prepared from 10′000 DMSO stock solutions. The samples were assessed for mortality 6 days after placing seedlings into test solutions.

Experiment [5] has the same test system. The experiment in a line: Myzus persicae (Green Peach Aphid): intrinsic activity, sucrose solution. The following applies: 120 h, test rate of 12 ppm, intrinsic, mixed with sucrose solution under Parafilm, 5 days after infestation, read-out: mortality. The text has this:
Example B8: Myzus persicae (Green Peach Aphid). Intrinsic Activity
Test compounds prepared from 10′000 ppm DMSO stock solutions were applied by pipette into 24-well microtiter plates and mixed with sucrose solution. The plates were closed with a stretched Parafilm. A plastic stencil with 24 holes was placed onto the plate and infested pea seedlings were placed directly on the Parafilm. The infested plate was closed with a gel blotting paper and another plastic stencil and then turned upside down. The samples were assessed for mortality 5 days after infestation.

A value given as a limit tells only on which side of the number the result lay.

A word on the mortality: it is the share of the test organisms that died.

As to `COCN([C@@H](C)COc1cc(C(=O)NC2(C#N)CC2)c(Br)cn1)S(=O)(=O)C(F)(F)F` [Compound P-82, 5-bromo-N-(1-cyanocyclopropyl)-2-[(2S)-2-[methoxymethyl(trifluoromethylsulfonyl)amino]propoxy]pyridine-4-carboxamide], the mortality at 200 ppm in experiment [1] and in experiment [2] was at least 80% in each case.
`CC(C)C(=O)OCN([C@@H](C)COc1cnc(Cl)c(C(=O)NC2CC2)c1)S(=O)(=O)C(F)(F)F` [Compound P-13, [[(1S)-2-[[6-chloro-5-(cyclopropylcarbamoyl)-3-pyridyl]oxy]-1-methyl-ethyl]-(trifluoromethylsulfonyl)amino]methyl 2-methylpropanoate]: the mortality at 200 ppm in experiment [1], in experiment [3] and in experiment [2] was at least 80% each time. In addition, the mortality at 24 ppm in experiment [4] is at least 80%. Moreover, the mortality at 12 ppm in experiment [5] is at least 80%.
Regarding `C[C@@H](COc1cnc(Cl)c(C(=O)NC(C)(C)C#N)c1)NS(=O)(=O)C(F)(F)F` [Compound P-57, 2-chloro-N-(1-cyano-1-methyl-ethyl)-5-[(2S)-2-(trifluoromethylsulfonylamino)propoxy]pyridine-3-carboxamide], the mortality at 200 ppm in experiment [1], in experiment [3] and in experiment [2] was at least 80% in each case. In addition, in experiment [4], the mortality at 24 ppm was at least 80%. In experiment [5], the mortality at 12 ppm is at least 80%.
`C[C@@H](COc1cc(C(=O)NC2(C#N)CC2)c(Br)cn1)NS(=O)(=O)C(F)(F)F` [Compound P-86, 5-bromo-N-(1-cyanocyclopropyl)-2-[(2S)-2-(trifluoromethylsulfonylamino)propoxy]pyridine-4-carboxamide]: the mortality at 200 ppm in experiment [1] is at least 80%.
As to `C[C@@H](COc1cnc(Cl)c(C(=O)Nc2ccccc2)c1)NS(=O)(=O)C(F)(F)F` [Compound P-56, 2-chloro-N-phenyl-5-[(2S)-2-(trifluoromethylsulfonylamino)propoxy]pyridine-3-carboxamide], the mortality at 200 ppm in experiment [1] and in experiment [2] was at least 80% throughout.
Turning to `Cc1cnc(OC[C@H](C)NS(=O)(=O)C(F)(F)F)cc1C(=O)NC1CCN(CC(F)(F)F)C1=O` (stereo partly drawn) [Compound P-70, 5-methyl-N-[2-oxo-1-(2,2,2-trifluoroethyl)pyrrolidin-3-yl]-2-[(2S)-2-(trifluoromethylsulfonylamino)propoxy]pyridine-4-carboxamide], the mortality at 200 ppm in experiment [1] and in experiment [3] was at least 80% throughout.
Consider `C[C@@H](COc1cnc(Cl)c(C(=O)NC2CC2)c1)NS(=O)(=O)C(F)F` [Compound P-10, 2-chloro-N-cyclopropyl-5-[(2S)-2-(difluoromethylsulfonylamino)propoxy]pyridine-3-carboxamide], for which the mortality at 24 ppm in experiment [4] is at least 80%. For the same molecule, the mortality at 12 ppm in experiment [5] was at least 80%. For the same molecule, the mortality at 200 ppm in experiment [2] is at least 80%.
As for `Cc1ncc(OC[C@H](C)NS(=O)(=O)C(F)(F)F)cc1C(=O)NC12CC(C1)C2` [Compound P-26, N-(1-bicyclo[1.1.1]pentanyl)-2-methyl-5-[(2S)-2-(trifluoromethylsulfonylamino)propoxy]pyridine-3-carboxamide], the mortality at 200 ppm in experiment [3] and in experiment [2] was at least 80% each time. The mortality at 24 ppm in experiment [4] is at least 80%. In addition, the mortality at 12 ppm in experiment [5] is at least 80%.
As to `O=C(NC1CC1)c1cc(OCCNS(=O)(=O)C(F)(F)F)cnc1Cl` [Compound P-17, 2-chloro-N-cyclopropyl-5-[2-(trifluoromethylsulfonylamino)ethoxy]pyridine-3-carboxamide], the mortality at 200 ppm in experiment [1] and in experiment [3] was at least 80% in each case. Also, the mortality at 12 ppm in experiment [5] was at least 80%.
For the molecule `C[C@@H](COc1cc(C(=O)NC2CC2)c(Br)cn1)NS(=O)(=O)C(F)(F)F` [Compound P-83, 5-bromo-N-cyclopropyl-2-[(2S)-2-(trifluoromethylsulfonylamino)propoxy]pyridine-4-carboxamide], the mortality at 200 ppm in experiment [3] is at least 80%. The mortality at 24 ppm in experiment [4] was at least 80%. Besides, the mortality at 12 ppm in experiment [5] is at least 80%.
For the molecule `Cc1ncc(OC[C@H](C)NS(=O)(=O)C(F)(F)F)cc1C(=O)NC(C)C1CC1` (stereo partly drawn) [Compound P-31, N-(1-cyclopropylethyl)-2-methyl-5-[(2S)-2-(trifluoromethylsulfonylamino)propoxy]pyridine-3-carboxamide], the mortality at 200 ppm in experiment [1] and in experiment [2] was at least 80% each time.
Turning to `C[C@@H](COc1cnc(Cl)c(C(=O)NC2CON(CC(F)(F)F)C2=O)c1)NS(=O)(=O)C(F)(F)F` (stereo partly drawn) [Compound P-54, 2-chloro-N-[3-oxo-2-(2,2,2-trifluoroethyl)isoxazolidin-4-yl]-5-[(2S)-2-(trifluoromethylsulfonylamino)propoxy]pyridine-3-carboxamide], the mortality at 200 ppm in experiment [1] and in experiment [3] was at least 80% in each case. For the same molecule, the mortality at 24 ppm in experiment [4] is at least 80%. Besides, the mortality at 12 ppm in experiment [5] was at least 80%.
For `C#CCNC(=O)c1cc(OC[C@H](C)NS(=O)(=O)C(F)(F)F)cnc1Cl` [Compound P-52, 2-chloro-N-prop-2-ynyl-5-[(2S)-2-(trifluoromethylsulfonylamino)propoxy]pyridine-3-carboxamide], the mortality at 200 ppm in experiment [1], in experiment [3] and in experiment [2] was at least 80% throughout.
Regarding `Cc1cc(Cl)cnc1NC(=O)c1cc(OC[C@H](C)NS(=O)(=O)C(F)(F)F)cnc1Cl` [Compound P-20, 2-chloro-N-(5-chloro-3-methyl-2-pyridyl)-5-[(2S)-2-(trifluoromethylsulfonylamino)propoxy]pyridine-3-carboxamide], the mortality at 200 ppm in experiment [1] and in experiment [2] was at least 80% each time. Also, the mortality at 12 ppm in experiment [5] was at least 80%.
`C[C@@H](COc1cnc(Cl)c(C(=O)NCC2(C#N)CC2)c1)NS(=O)(=O)C(F)(F)F` [Compound P-46, 2-chloro-N-[(1-cyanocyclopropyl)methyl]-5-[(2S)-2-(trifluoromethylsulfonylamino)propoxy]pyridine-3-carboxamide]: the mortality at 200 ppm in experiment [1] and in experiment [3] was at least 80% throughout.
`C[C@@H](COc1cnc(Cl)c(C(=O)NC(C)(C)C)c1)NS(=O)(=O)C(F)(F)F` [Compound P-11, N-tert-butyl-2-chloro-5-[(2S)-2-(trifluoromethylsulfonylamino)propoxy]pyridine-3-carboxamide]: the mortality at 200 ppm in experiment [3] and in experiment [2] was at least 80% in each case. For the same molecule, the mortality at 12 ppm in experiment [5] is at least 80%.
Regarding `C[C@@H](COc1cc(C(=O)NC2CC2)c(Cl)cn1)NS(=O)(=O)C(F)(F)F` [Compound P-87, 5-chloro-N-cyclopropyl-2-[(2S)-2-(trifluoromethylsulfonylamino)propoxy]pyridine-4-carboxamide], the mortality at 200 ppm in experiment [3] and in experiment [2] was at least 80% throughout. The mortality at 12 ppm in experiment [5] is at least 80%.
As for `Cc1ncc(OC[C@H](C)NS(=O)(=O)C(F)(F)F)cc1C(=O)NCc1ccc(Cl)cn1` [Compound P-28, N-[(5-chloro-2-pyridyl)methyl]-2-methyl-5-[(2S)-2-(trifluoromethylsulfonylamino)propoxy]pyridine-3-carboxamide], the mortality at 200 ppm in experiment [1] was at least 80%. In addition, the mortality at 24 ppm in experiment [4] was at least 80%.
Take `CC(NC(=O)c1cc(OC[C@H](C)NS(=O)(=O)C(F)(F)F)cnc1Cl)C1CC1` (stereo partly drawn) [Compound P-45, 2-chloro-N-(1-cyclopropylethyl)-5-[(2S)-2-(trifluoromethylsulfonylamino)propoxy]pyridine-3-carboxamide]: the mortality at 200 ppm in experiment [3] and in experiment [2] was at least 80% in each case. Moreover, in experiment [5], the mortality at 12 ppm was at least 80%.
`C[C@@H](COc1cnc(Cl)c(C(=O)NC2CC2)c1)NS(=O)(=O)C(Cl)Cl` [Compound P-4, 2-chloro-N-cyclopropyl-5-[(2S)-2-(dichloromethylsulfonylamino)propoxy]pyridine-3-carboxamide]: the mortality at 200 ppm in experiment [3] and in experiment [2] was at least 80% each time. For the same molecule, the mortality at 12 ppm in experiment [5] is at least 80%.

(Values after patent publication US20260015325A1, “ALKOXY HETEROARYL- CARBOXAMIDE OR THIOAMIDE COMPOUNDS” (SYNGENTA CROP PROTECTION AG, priority 2022, published 2026).)
